# Active and inactive are the calls of the source. How the calls were made is not given here.
# System: CCRIS mutagenicity, Ames/micronucleus/aberration tests
# Assay: CCRIS mutagenicity studies
# [1] = Test System: AMES SALMONELLA TYPHIMURIUM, Strain/Indicator: TA100, Metabolic Activation: NONE, Method: PREINCUBATION
# [2] = Test System: AMES SALMONELLA TYPHIMURIUM, Strain/Indicator: TA100, Metabolic Activation: NONE, Method: STANDARD PLATE
# [3] = Test System: AMES SALMONELLA TYPHIMURIUM, Strain/Indicator: TA98, Metabolic Activation: NONE, Method: STANDARD PLATE
smiles,measurement,setting,value
[K+],mutagenic call,"End Point: IN VIVO MICRONUCLEUS, Test System: BONE MARROW POLYCHROMATIC ERYTHROCYTES, Species: MOUSE, Strain/Sex: DDY/MALE, Route: IP",inactive; negative
same,mutagenic call,"End Point: In vitro chromosomal aberrations, Test System: Chinese hamster lung (CHL) cells, Metabolic Activation: None",active; positive (structural changes)
same,mutagenic call,"Test System: AMES SALMONELLA TYPHIMURIUM, Strain/Indicator: TA97, Metabolic Activation: HAMSTER, LIVER, S-9, AROCLOR 1254 (10 OR 30%), Method: PREINCUBATION",inactive; negative
same,mutagenic call,"Test System: AMES SALMONELLA TYPHIMURIUM, Strain/Indicator: TA97, Metabolic Activation: NONE, Method: PREINCUBATION",inactive; negative
same,mutagenic call,"Test System: AMES SALMONELLA TYPHIMURIUM, Strain/Indicator: TA97, Metabolic Activation: RAT, LIVER, S-9, AROCLOR 1254 (10 OR 30%), Method: PREINCUBATION",inactive; negative
same,mutagenic call,"Test System: AMES SALMONELLA TYPHIMURIUM, Strain/Indicator: TA98, Metabolic Activation: HAMSTER, LIVER, S-9, AROCLOR 1254 (10 OR 30%), Method: PREINCUBATION",inactive; negative
same,mutagenic call,"Test System: AMES SALMONELLA TYPHIMURIUM, Strain/Indicator: TA98, Metabolic Activation: NONE, Method: PREINCUBATION",inactive; negative
same,mutagenic call,"Test System: AMES SALMONELLA TYPHIMURIUM, Strain/Indicator: TA98, Metabolic Activation: RAT, LIVER, S-9, AROCLOR 1254 (10 OR 30%), Method: PREINCUBATION",inactive; negative
same,mutagenic call,"Test System: AMES SALMONELLA TYPHIMURIUM, Strain/Indicator: TA100, Metabolic Activation: HAMSTER, LIVER, S-9, AROCLOR 1254 (10 OR 30%), Method: PREINCUBATION",inactive; negative
same,mutagenic call,[1],inactive; negative
same,mutagenic call,"Test System: AMES SALMONELLA TYPHIMURIUM, Strain/Indicator: TA100, Metabolic Activation: RAT, LIVER, S-9, AROCLOR 1254 (10 OR 30%), Method: PREINCUBATION",inactive; negative
same,mutagenic call,"Test System: AMES SALMONELLA TYPHIMURIUM, Strain/Indicator: TA1535, Metabolic Activation: HAMSTER, LIVER, S-9, AROCLOR 1254 (10 OR 30%), Method: PREINCUBATION",inactive; negative
same,mutagenic call,"Test System: AMES SALMONELLA TYPHIMURIUM, Strain/Indicator: TA1535, Metabolic Activation: NONE, Method: PREINCUBATION",inactive; negative
same,mutagenic call,"Test System: AMES SALMONELLA TYPHIMURIUM, Strain/Indicator: TA1535, Metabolic Activation: RAT, LIVER, S-9, AROCLOR 1254 (10 OR 30%), Method: PREINCUBATION",inactive; negative
OCNc1ncnc2c1ncn2[C@@H]1O[C@H](CO)[C@@H](O)[C@H]1O,mutagenic call,"Test System: AMES SALMONELLA TYPHIMURIUM, Strain/Indicator: TA100(TN5-1,8-DNP1011), Metabolic Activation: NONE, Method: STANDARD PLATE",inactive; negative
same,mutagenic call,"Test System: AMES SALMONELLA TYPHIMURIUM, Strain/Indicator: TA100(TN5-1,8-DNP1012), Metabolic Activation: NONE, Method: STANDARD PLATE",active; positive
same,mutagenic call,[2],inactive; negative
CCCN(CC(C)=O)N=O,mutagenic call,"Test System: CHINESE HAMSTER V-79, Strain/Indicator: V-79/OUABAIN, Metabolic Activation: HAMSTER, HEPATOCYTES, Method: CELL-MEDIATED",active; positive
CCN(CCCl)CCCNc1c2ccccc2nc2ccccc12,mutagenic call,[3],active; positive
same,mutagenic call,[2],active; positive
same,mutagenic call,"Test System: AMES SALMONELLA TYPHIMURIUM, Strain/Indicator: TA1535, Metabolic Activation: NONE, Method: STANDARD PLATE",inactive; negative
same,mutagenic call,"Test System: AMES SALMONELLA TYPHIMURIUM, Strain/Indicator: TA1536, Metabolic Activation: NONE, Method: STANDARD PLATE",active; positive
same,mutagenic call,"Test System: AMES SALMONELLA TYPHIMURIUM, Strain/Indicator: TA1537, Metabolic Activation: NONE, Method: STANDARD PLATE",active; positive
same,mutagenic call,"Test System: AMES SALMONELLA TYPHIMURIUM, Strain/Indicator: TA1538, Metabolic Activation: NONE, Method: STANDARD PLATE",active; positive
CC(=O)Nc1ccc(-c2ccccc2)cc1,mutagenic call,"Test System: AMES SALMONELLA TYPHIMURIUM, Strain/Indicator: TA98, Metabolic Activation: RAT, LIVER, S-9, KC500 OR PHENOBARBITAL, Method: LIQUID SUSPENSION",active; positive
same,mutagenic call,"Test System: AMES SALMONELLA TYPHIMURIUM, Strain/Indicator: TA100 (1,8-DNP), Metabolic Activation: MOUSE LIVER S-9, AROCLOR 1254, 10%, Method: PREINCUBATION",active; positive
same,mutagenic call,"Test System: AMES SALMONELLA TYPHIMURIUM, Strain/Indicator: TA100 (1,8-DNP), Metabolic Activation: RAT LIVER S-9, AROCLOR 1254, 10%, Method: PREINCUBATION",active; positive
same,mutagenic call,"Test System: AMES SALMONELLA TYPHIMURIUM, Strain/Indicator: TA100, Metabolic Activation: MOUSE LIVER S-9, AROCLOR 1254, 10%, Method: PREINCUBATION",active; positive
same,mutagenic call,"Test System: AMES SALMONELLA TYPHIMURIUM, Strain/Indicator: TA100, Metabolic Activation: RAT LIVER S-9, AROCLOR 1254, 10%, Method: PREINCUBATION",active; positive
same,mutagenic call,"Test System: AMES SALMONELLA TYPHIMURIUM, Strain/Indicator: TA100, Metabolic Activation: RAT, LIVER, S-9, KC500 OR PHENOBARBITAL, Method: LIQUID SUSPENSION",active; positive
same,mutagenic call,"Test System: AMES SALMONELLA TYPHIMURIUM, Strain/Indicator: YG1029, Metabolic Activation: MOUSE LIVER S-9, AROCLOR 1254, 10%, Method: PREINCUBATION",active; positive
same,mutagenic call,"Test System: AMES SALMONELLA TYPHIMURIUM, Strain/Indicator: YG1029, Metabolic Activation: RAT LIVER S-9, AROCLOR 1254, 10%, Method: PREINCUBATION",active; positive
CC(=O)Nc1ccc(/C=C/C(=O)c2ccccc2)cc1,mutagenic call,[3],inactive; negative
same,mutagenic call,"Test System: AMES SALMONELLA TYPHIMURIUM, Strain/Indicator: TA98, Metabolic Activation: RAT, LIVER, S-9, AROCLOR 1254, Method: STANDARD PLATE",active; positive
same,mutagenic call,[2],active; positive
same,mutagenic call,"Test System: AMES SALMONELLA TYPHIMURIUM, Strain/Indicator: TA100, Metabolic Activation: RAT, LIVER, S-9, AROCLOR 1254, Method: STANDARD PLATE",active; positive
C1CSCN1,mutagenic call,[1],active; positive
CCc1cc2ccccc2c2ccc3c(c12)[C@@H]1O[C@@H]1[C@H](O)[C@H]3O,mutagenic call,[1],active; positive
Cn1c(N)nc2nc3cccnc3cc21,mutagenic call,"Test System: AMES SALMONELLA TYPHIMURIUM, Strain/Indicator: TA98, Metabolic Activation: RAT, LIVER, S-9, AROCLOR 1254A, Method: STANDARD PLATE",inactive; negative
same,mutagenic call,"Test System: AMES SALMONELLA TYPHIMURIUM, Strain/Indicator: YG1024, Metabolic Activation: RAT, LIVER, S-9, AROCLOR 1254A, Method: STANDARD PLATE",active; positive
Cc1cc2c(N3CCCC3)nc(N3CCCC3)nc2n1C,mutagenic call,"Test System: UDS RAT HEPATOCYTES, Strain/Indicator: THY-INCORP, Metabolic Activation: NONE, Method: AUTORADIOGRAPHY",active; positive

# Reference: PubChem BioAssay AID1259407 (Chemical Carcinogenesis Research Information System (CCRIS), 2018)
